In PubChem BioAssay (NCI):
“And” between values parts separate entries of the source, which are not always exact repeats. Equal entries are not always repeated.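 Tested at 5 concentrations; 48 h exposure; 96-well plates; endpoints linearly interpolated, else capped at highest concentration. GI50 marks 50% less growth. TGI: total growth inhibition.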

Key:
Experiment in all cases: NCI anticancer screen, dose series, 48 h
[1] = tested on: 786-0 renal
[2] = tested on: A498 renal
[3] = tested on: A549 NSCLC
[4] = tested on: ACHN renal
[5] = tested on: BT-549 breast
[6] = tested on: CAKI-1 renal
[7] = tested on: CCRF-CEM leukemia
[8] = tested on: COLO 205 colon
[9] = tested on: DU-145 prostate
[10] = tested on: EKVX NSCLC
[11] = tested on: HCC-2998 colon
[12] = tested on: HCT-116 colon
[13] = tested on: HCT-15 colon
[14] = tested on: HOP-62 NSCLC
[15] = tested on: HOP-92 NSCLC
[16] = tested on: HS 578T breast
[17] = tested on: HT29 colon
[18] = tested on: IGROV1 ovarian
[19] = tested on: K-562 leukemia
[20] = tested on: KM12 colon
[21] = tested on: LOX IMVI melanoma
[22] = tested on: M14 melanoma
[23] = tested on: MALME-3M melanoma
[24] = tested on: MCF7 breast
[25] = tested on: MDA-MB-435
[26] = tested on: MDA-N
[27] = tested on: MOLT-4 leukemia
[28] = tested on: NCI-H23 lung
[29] = tested on: NCI-H460 lung
[30] = tested on: NCI-H522 lung
[31] = tested on: NCI/ADR-RES ovarian
[32] = tested on: OVCAR-3 ovarian
[33] = tested on: OVCAR-4 ovarian
[34] = tested on: OVCAR-5 ovarian
[35] = tested on: PC-3 prostate
[36] = tested on: RPMI-8226 leukemia
[37] = tested on: RXF 393 renal
[38] = tested on: SF-268 CNS
[39] = tested on: SF-295 CNS
[40] = tested on: SK-MEL-28 melanoma
[41] = tested on: SK-MEL-5 melanoma
[42] = tested on: SN12C renal
[43] = tested on: SNB-19 CNS
[44] = tested on: SR leukemia
[45] = tested on: SW-620 colon
[46] = tested on: U251 CNS
[47] = tested on: UACC-257 melanoma
[48] = tested on: UACC-62 melanoma
[49] = tested on: UO-31 renal
[50] = tested on: HL-60(TB) leukemia
[51] = tested on: MDA-MB-231 breast
[52] = tested on: NCI-H226 lung
[53] = tested on: OVCAR-8 ovarian
[54] = tested on: SF-539 CNS
[55] = tested on: SK-MEL-2 melanoma
[56] = tested on: SK-OV-3 ovarian
[57] = tested on: SNB-75 CNS
[58] = tested on: T-47D breast
[59] = tested on: TK-10 renal

In the case of `COc1cc(-c2c(C(C)=O)c(-c3ccccc3)n(C3OC(COC(C)=O)C(OC(C)=O)C(OC(C)=O)C3OC(C)=O)c(=S)c2C#N)ccc1O` (stereo not drawn), the TGI [1] is reported as > 100 µM, the TGI [2] is reported as > 100 µM and the TGI [3] is reported as > 100 µM. For the same molecule, the TGI [4] was > 100 µM, the TGI [5] was 82.4 µM and the TGI [6] was > 100 µM. For the same molecule, the TGI [7] was > 100 µM, the TGI [8] was > 100 µM and the TGI [9] was > 100 µM. For the same molecule, the TGI [10] was > 100 µM, the GI50 [11] was > 100 µM and 29.6 µM and the TGI [11] was > 100 µM and 79.5 µM. For the same molecule, the TGI [12] was > 100 µM, the TGI [13] was > 100 µM and the TGI [14] was > 100 µM. For the same molecule, the TGI [15] was > 100 µM, the TGI [16] was > 100 µM and the TGI [17] was > 100 µM. For the same molecule, the GI50 [18] was 31.8 µM and > 100 µM, the TGI [18] was > 100 µM and the TGI [19] was > 100 µM. The TGI [20] was > 100 µM, the TGI [21] was > 100 µM and the TGI [22] was > 100 µM. For the same molecule, the GI50 [23] was 37 µM and > 100 µM, the TGI [23] was > 100 µM and the TGI [24] was > 100 µM. For the same molecule, the TGI [25] was > 100 µM, the TGI [26] was > 100 µM and the TGI [27] was > 100 µM. For the same molecule, the TGI [28] was > 100 µM, the TGI [29] was > 100 µM and the GI50 [30] was 18.6 µM and 40.2 µM. The TGI [30] was 90.4 µM and > 100 µM, the TGI [31] was > 100 µM and the GI50 [32] was 44.1 µM and > 100 µM. For the same molecule, the TGI [32] was > 100 µM, the TGI [33] was > 100 µM and the TGI [34] was > 100 µM. For the same molecule, the TGI [35] was > 100 µM, the GI50 [36] was 34.5 µM and the TGI [36] was > 100 µM. For the same molecule, the TGI [37] was > 100 µM, the TGI [38] was > 100 µM and the TGI [39] was > 100 µM. For the same molecule, the TGI [40] was > 100 µM, the TGI [41] was > 100 µM and the TGI [42] was > 100 µM. The TGI [43] was > 100 µM, the TGI [44] was > 100 µM and the TGI [45] was > 100 µM. The TGI [46] was > 100 µM, the GI50 [47] was > 100 µM and 34.9 µM and the TGI [47] was > 100 µM. The TGI [48] was > 100 µM and the TGI [49] was > 100 µM.

For `Cc1c(O)c(OC2OC(CO)C(O)C(O)C2O)cc2c1CC[C@@H]1C2(C)C(=O)C[C@]2(C)[C@@H]([C@@](C)(O)C(O)CCC(C)(C)O)[C@H](O)C[C@@]12C` (stereo partly drawn), the TGI [1] was > 100 µM, the TGI [2] was > 100 µM and the TGI [3] was > 100 µM. For the same molecule, the TGI [4] was > 100 µM, the TGI [5] was > 100 µM and the TGI [6] was > 100 µM. The TGI [7] was > 100 µM, the TGI [8] was > 100 µM and the TGI [9] was > 100 µM. For the same molecule, the TGI [10] was > 100 µM, the TGI [11] was > 100 µM and the TGI [12] was > 100 µM. The TGI [13] was > 100 µM, the TGI [50] was > 100 µM and the TGI [14] was > 100 µM. The TGI [15] was > 100 µM, the TGI [17] was > 100 µM and the TGI [18] was > 100 µM. The TGI [19] was > 100 µM, the TGI [20] was > 100 µM and the TGI [21] was > 100 µM. The TGI [22] was > 100 µM, the TGI [23] was > 100 µM and the TGI [24] was > 100 µM. For the same molecule, the TGI [51] was > 100 µM, the TGI [25] was > 100 µM and the TGI [26] was > 100 µM. The TGI [27] was > 100 µM, the TGI [52] was > 100 µM and the TGI [28] was > 100 µM. For the same molecule, the TGI [29] was > 100 µM, the TGI [30] was > 100 µM and the TGI [31] was > 100 µM. For the same molecule, the TGI [32] was > 100 µM, the TGI [33] was > 100 µM and the TGI [34] was > 100 µM. For the same molecule, the TGI [53] was > 100 µM, the TGI [35] was > 100 µM and the TGI [37] was > 100 µM. For the same molecule, the TGI [38] was > 100 µM, the TGI [39] was > 100 µM and the TGI [54] was > 100 µM. For the same molecule, the TGI [55] was > 100 µM, the TGI [40] was > 100 µM and the TGI [41] was > 100 µM. For the same molecule, the TGI [56] was > 100 µM, the TGI [42] was > 100 µM and the TGI [43] was > 100 µM. The TGI [57] was > 100 µM, the TGI [44] was > 100 µM and the TGI [45] was > 100 µM. The TGI [58] was > 100 µM, the TGI [59] was > 100 µM and the TGI [46] was > 100 µM. For the same molecule, the TGI [47] was > 100 µM, the TGI [48] was > 100 µM and the TGI [49] was > 100 µM.
